{"source": "patent US9464113B2", "about": "“Anti-heparan sulfate peptides that block herpes simplex virus infection in vivo” (The Board of Trustees of the University of Illinois, priority 2010, dated 2016)", "key": {"HSV-1(K26GFP)": {"tested_on": "HSV-1(K26GFP)", "assay": "HSV-1(K26GFP) binding to human CF (microscopy, fluorescence reader, flow cytometry)", "format": "cell-based, herpes simplex virus type-1", "conditions": "for virus binding by flow cytometry: 60 min pre-treatment, 4° C. (FIG. 6C)", "experimental": "Flow cytometry was performed to detect the effect of G2 peptide on GFP-HSV-1 binding to human CF. Monolayers of approximately 5×10^6 CF were pre-treated with G2 peptide for 60 min followed by incubation with GFP-expressing HSV-1 (K26GFP) at 4° C. A control peptide treated and untreated cells were similarly incubated with HSV-1 GFP virions. Uninfected CF were used as background negative control. GFP expression from the viral capsid on cell surface was examined by a flowcytometer (MoFlo).\nCultured CF were pre-incubated with 0.5 mM G2 peptide or control-peptide (cp) and then infected with a GFP-tagged HSV-1(K26GFP) virus. Cells were fixed at 60 min post-infection and stained for F-actin and the nucleus (DAPI). GFP-expressing HSV-1(K26GFP) binding to CF in presence and absence of G2 peptides was examined by fluorescence microscopy (FIG. 6A). CF were grown in collagen coated chamber slides and incubated at room temperature for 60 min with G2 (+) or control Cp (G2 (−)) peptide. This was followed by the incubation of the cells in cold with GFP-expressing HSV-1(K26GFP) for 30 min and washing of unbound virioins with PBS. Cells were fixed, stained with phalloidin for F-actin and DAPI for nuclei and examined by a fluorescence microscope (Leica, SP2). The presence of the virus was shown by detecting GFP.\nTo examine this effect on a population of 10^5 cells, GFP intensity as an indicator of virus binding, was measured after incubation with the virus in cold and rigorous washing of the cells afterwards (FIG. 6B). Relative virus binding to CF was estimated by fluorescence measurements. Cultured CF were pre-incubated with G2 and control peptide (Cp) for 60-min before ice-cold incubation with GFP-expressing HSV-1 virus for 30 min. Cells were washed 3 times and viruses remaining on cell surfaces were assayed for GFP fluorescent intensity using a fluorescence reader (Tecan).\nGFP-expressing HSV-1(K26GFP) intensity as a surrogate for virus binding was quantified in presence G2 or control peptide (abbreviated as C) by flow cytometry (FIG. 6C). The cell/virus incubation was performed as described above. G2 peptides block HSV-1 replication into cultured human corneal fibroblasts (CF) (FIG. 6D). Cultured CF were pre-incubated with G2 or mock-treated (Cp) before infection with HSV-1(K26GFP) virus for 6 h. Viral replications in CF were quantified 0-36 h post-infection by measuring GFP fluorescent intensity using a fluorescence reader (Tecan). The data shown are the means of triplicate measures and are representative of three independent experiments. Asterisks indicate significant difference from other treatments (P<0.01, t test), error bars represent standard deviation (SD).\nPrimary cultures of human CF pretreated with G2 peptide or control peptide (C) were analyzed for HSV-1(K26GFP) binding. […]"}, "[1]": {"tested_on": "HSV-1 glycoproteins (gB, gD, gH-gL) induced membrane fusion", "assay": "HSV-1 glycoprotein induced cell-to-cell fusion assay, human CF target cells", "format": "cell-based, herpes simplex virus type-1", "description": "CHO-K1 “effector” cells (grown in F-12 Ham, Invitrogen) were co-transfected with plasmids expressing four HSV-1(KOS) glycoproteins: pPEP98 (gB), pPEP99 (gD), pPEP100 (gH), and pPEP101 (gL), along with the plasmid pT7EMCLuc that expresses firefly luciferase gene under transcriptional control of the T7 promoter. Pertel et al., Virology 279:313-324 (2001). Wild-type CHO-K1 cells, which express cell-surface HS but lack functional gD receptors, were transiently transfected with HSV-1 entry receptors. Wild-type CHO-K1 cultured cells expressing HSV-1 entry receptors or naturally susceptible cells (human CF) considered as “target cells” were co-transfected with pCAGT7 that expresses T7 RNA polymerase using chicken actin promoter and CMV enhancer. Tiwari et al., FEBS Letters 581:4468-4472 (2007). Untreated effector cells expressing pT7EMCLuc and HSV-1 essential glycoproteins, and target cells expressing gD receptors transfected with T7 RNA polymerase, were used as positive controls. G2 or control peptide-treated target cells were then co-cultivated (1:1 ratio) for 18 h with effector cells for fusion. Activation of a reporter luciferase gene—as a measure of cell fusion—was examined using reporter lysis assay (Promega) at 24 hr post mixing.\nSince G2 was isolated against 3-OS HS, which can mediate viral penetration by promoting membrane fusion (Tiwari et al., J. Gen. Virol. 85:805-809 (2004)), the ability of G2 to block HSV-1 glycoprotein-mediated membrane fusion was tested. Pertel et al., Virology 279:313-324 (2001). The same membrane fusion is used during polykaryocytes formation and cell-to-cell spread. Tiwari et al., FEBS Letters 581:4468-4472 (2007) and Tiwari et al., Biochemical and Biophysical Research Communications 390:382-387 (2009). […]\nControl effector cells (T7 polymerase and gD, gH-gL only) (−) were also pre-incubated with G2 for the same duration. […] Membrane fusion as a surrogate for viral spread was detected by monitoring luciferase activity (FIGS. 7A and 7C). Relative luciferase units (RLUs) were determined using a Sirius luminometer (Berthold detection systems). […]"}}, "note": "No end group written: not given here.", "data": [{"sequence": "RVCGSIGKEVLG [Cp, reference compound]", "values": [{"measurement": "virus binding by flow cytometry", "setting": "HSV-1(K26GFP)", "value": "low level inhibitory activity"}]}, {"sequence": "MPRRRRIRRRQK [G2, MPRRRRIRRRQK]", "values": [{"measurement": "virus attachment (fluorescence microscopy)", "setting": "HSV-1(K26GFP); 0.5 mM, 60 min, virus in cold 30 min (FIG. 6A)", "value": "resisted virus attachment"}, {"measurement": "virus binding by flow cytometry", "setting": "HSV-1(K26GFP)", "value": "virus failed to bind"}, {"measurement": "relative virus binding (GFP fluorescent intensity)", "setting": "HSV-1(K26GFP); fluorescence reader (FIG. 6B)", "value": "binding was significantly higher in Cp-treated compared to G2 peptide treated cells"}, {"measurement": "blocking of membrane fusion (luciferase activity)", "setting": "[1]; human CF (FIG. 7A)", "value": "very effective in blocking membrane fusion"}, {"measurement": "syncytia (polykaryocyte) formation, Giemsa staining", "setting": "[1]; human CF (FIG. 7B)", "value": "loss of syncytia formation"}]}, {"sequence": "LRSRTKIIRIRH [G1, LRSRTKIIRIRH]", "values": [{"measurement": "blocking of membrane fusion", "setting": "[1]; statement only, target cells not stated, no data shown", "value": "does not appear to block membrane fusion"}]}]}
